The values below come from publication PMC4798767, “Hydrophobicity of Antifungal β-Peptides Is Associated with Their Cytotoxic Effect on In Vitro Human Colon Caco-2 and Liver HepG2 Cells” (PLoS ONE, 2016).

Converted amounts (≈) assume the structure as drawn. “Also recorded” adds a separate entry of the source.

Series [1] can be described thus: HPLC-RP retention time as measure of β-peptide hydrophobicity. Conditions: used to sort the β-peptides by hydrophobicity. The series is classed as physicochemical. On the procedure:
Fig 1 i. Structures of antifungal β-peptides used in this study. The codification (#number) corresponds to the nomenclature used by Lee et al. in a previous publication. β-peptide (e) is a fluorescently labeled β-peptide. The C-terminus is amidated for all β-peptides. ii. HPLC-RP retention time for the β-peptides synthesized in this work, see Figs A-D in S1 File for further details. TEXT PRINTED IN THE PICTURE: (ii) #4: Retention time tR: 24.5 ± 0.2 min | (ii) #21: Retention time tR: 25.2 ± 0.2 min | (ii) #5: Retention time tR: 25.4 ± 0.1 min | (ii) #16: Retention time tR: 27.4 ± 0.2 min
The experiments compiled here establish structural-functional correlations of the β-peptides as a function of the cytotoxicity in mammalian cells other than erythrocytes.

Series [2] deals with HepG2 cells. Nature of the series: cells. The series is classed as cell-based, human. The note with it: for IC50 HepG2: 24 h. On the procedure: (§1) HepG2 and Caco-2 were tittered from a culture at 70–80% confluence. HepG2 and Caco-2 cells were seeded at 13,000 and 9,000 cells, respectively, in a clear flat bottom 96-well plate with dark walls (Corning, NY, USA). Then they were allowed to adhere and proliferate in DMEM for 48 hours. Agents were prepared under the following conditions: β-peptides were dissolved and diluted in DMEM to the final working concentration; while AmpB and Keto were first dissolved in DMSO as a vehicle. The DMSO concentration was kept under 0.5% v/v in the experimental sample as well as in the untreated control cell media. Cells were exposed to the agent during 24 hours. Afterwards, the cells were washed two times with Hank’s Balanced Salt Solution (HBSS). Then, fresh DMEM was added to each plate and incubated until the control reached approximately 90% confluency. Cell viability was determined using CellTiter Blue™ (Promega, WI, USA), an assay based on the capacity of cells to reduce resazurin to resorufin, a fluorescent product whose intensity is proportional to the viable cells in the sample. […] After incubation, the fluorescence was measured using a Spectra Max Gemini EM spectrofluorometer (560Ex/590Em) (Sunnyvale, CA, USA). The long-term effect of the treatments with β-peptides was assessed using the model peptide (ACHC-β3hV-β3hK) in a clonogenic assay. In these assays, 1.25x10^5 and 9x10^4 cells/ml from HepG2 and Caco-2, respectively, were seeded in a 25cm^2 flask. The media was changed every two days. Once cells reached a confluence between 70–80%, they were treated in the flask with (ACHC-β3hV-β3hK) at 20 μg/mL in DMEM, a sub-lethal concentration, for 24 hours. They were then washed two times with PBS and allowed to recover in fresh medium for six hours, followed by trypsinization and tittering.
(§2) In vitro cytotoxicity assessments for HepG2 and Caco-2 were performed two independent times, each with four replicates (n = 8). A multivariate study of the data was performed through PCA to ascertain the impact of increasing β-peptide hydrophobicity on the viability of the treated cells. PCA was done using XLSTAT 2014 trial version, under a Pearson approach. The input matrix set to the program consisted of eleven rows and four columns of data. The first column contained the concentrations tested and the remainder columns contained the viability ratio obtained after exposure to the β-peptides #4, #5, and #16 (see Fig 1ii). The data of β-peptide #21 was not used in this analysis due to structural differences (lack of ACHC residues), which affects the molecule’s helicity. The ratio IC50/MICaver represents the selectivity of the β-peptides for the fungal cells over that of host cells, termed selectivity index (SI). For the purpose of the present study the SIs were calculated based on MICs for C. albicans published previously.

Series [3] has as its system Caco-2 cells. Nature of the series: In vitro cytotoxicity, CellTiter Blue viability, dose-effect curves. The series is classed as cell-based. Conditions: for IC50 Caco-2: 24 h. On the procedure:
as §1, §2

In series [4] the test system is Caco-2 cells. Nature of the series: Clonogenic assay, long-term effect. The series is classed as cell-based. Conditions: Caco-2, 20 μg/mL for 24 hours. On the procedure:
as §1
(§3) The long-term cytotoxic effect of β-peptides was evaluated using clonogenic assays (see Fig F in S1 File). In order to validate the data obtained from the dose-response curves for Caco-2 and HepG2, (ACHC-β3hV-β3hK) was selected as a β-peptide model to perform these assays due to its well-established biological activity against C. albicans, its hemolytic activity, and, with this study, its effect on HepG2 and Caco-2. A constant concentration of 20 μg/mL was chosen for these experiments. The chosen concentration of (ACHC-β3hV-β3hK) falls within the range of concentrations used in short-term assays, where 20 μg/mL of this β-peptide assured that both of the cell lines were affected to the same extent.

The subject of series [5] is HepG2 cells. Nature of the series: Clonogenic assay, long-term effect. The series is classed as cell-based. Conditions: HepG2, 20 μg/mL for 24 hours. On the procedure:
as §1, §3

Setting [6] is: two independent times, each three biological replicates.

Turning to `CC(C)[C@@H](CC(=O)N[C@@H](CCCNC(=N)N)CC(N)=O)NC(=O)[C@H]1CCCC[C@@H]1NC(=O)C[C@H](CCCNC(=N)N)NC(=O)C[C@@H](NC(=O)[C@H]1CCCC[C@@H]1NC(=O)C[C@H](CCCNC(=N)N)NC(=O)C[C@@H](NC(=O)[C@H]1CCCC[C@@H]1N)C(C)C)C(C)C` [#5, NH2-(ACHC-β^3hVal-β^3hArg)3], in series [1], the “Retention time tR” value was determined as 25.4 ± 0.1 min. The “IC50 HepG2” value in series [2] amounted to 47.25 ± 5.12 µg/mL (≈ 38 µM). For the same compound, in series [3], the “IC50 Caco-2” value was found to be 43.33 ± 9.0 µg/mL (≈ 34.9 µM).

As for `COc1ccc2cc(C(=O)NCCOCCOCC(=O)N[C@H]3CCCC[C@@H]3C(=O)N[C@H](CC(=O)N[C@@H](CCCCN)CC(=O)N[C@H]3CCCC[C@@H]3C(=O)N[C@H](CC(=O)N[C@@H](CCCCN)CC(=O)N[C@H]3CCCC[C@@H]3C(=O)N[C@H](CC(=O)N[C@@H](CCCCN)CC(N)=O)C(C)C)C(C)C)C(C)C)c(=O)oc2c1` [coumarin-(ACHC-β3hV-β3hK)], in series [2], the “effect on viability at 16 μg/mL” value is given as “does not exert a significant effect on viability”.

Take `CC(C)[C@@H](CC(=O)N[C@@H](CCCNC(=N)N)CC(=O)N[C@H](CC(=O)N[C@H](CC(=O)N[C@@H](CCCNC(=N)N)CC(=O)N[C@H](CC(=O)N[C@H](CC(=O)N[C@@H](CCCNC(=N)N)CC(N)=O)C(C)C)C(C)C)C(C)C)C(C)C)NC(=O)C[C@@H](NC(=O)C[C@@H](N)Cc1ccc(O)cc1)C(C)C` [#21, NH2-β^3hTyr-(β^3hVal-β^3hVal-β^3hArg)3]: the “Retention time tR” value in series [1] is given as 25.2 ± 0.2 min. In series [2], the “IC50 HepG2” value amounted to 52.5 ± 4.98 µg/mL (≈ 37.9 µM). Besides, in series [3], the “IC50 Caco-2” value came to 31.33 ± 3.27 µg/mL (≈ 22.6 µM).

In turn, `CC(=O)N1CCN(c2ccc(OCC3COC(Cn4ccnc4)(c4ccc(Cl)cc4Cl)O3)cc2)CC1` (stereo not shown) [Keto, ketoconazole, reference compound] had an IC50 in series [2] (Homo sapiens, HepG2, 24 hours of exposure, CellTiter Blue, two independent experiments, each four replicates (n = 8)) of 70 µg/mL (≈ 132 µM). For the same compound, the “cytotoxicity towards Caco-2, dose-effect curve in words” value in series [3] (24 hours of exposure, tested concentration range) is recorded as “not statistically different than the response observed for HepG2”.

Turning to `C[C@@H]1[C@H](O)[C@@H](C)/C=C/C=C/C=C/C=C/C=C/C=C/C=C/[C@H](O[C@@H]2O[C@H](C)[C@@H](O)[C@H](N)[C@@H]2O)C[C@@H]2O[C@](O)(C[C@@H](O)C[C@@H](O)[C@H](O)CC[C@@H](O)C[C@@H](O)CC(=O)O[C@H]1C)C[C@H](O)[C@H]2C(=O)O` [AmpB, Amphotericin B, reference compound], the “cytotoxicity towards HepG2, dose-effect curve in words” value in series [2] is recorded as “did not reach 100% cytotoxicity”. Besides, the “IC30 HepG2” value in series [2] (24 hours of exposure, from dose-effect curve) worked out at 30 µg/mL (≈ 32.5 µM). Besides, the inhibition at 30 µg/mL in series [2] (Homo sapiens, HepG2, 30 μg/mL, 24 hours of exposure) worked out at 30%. Further, the “cytotoxicity towards Caco-2, dose-effect curve in words” value in series [3] (Caco-2) is reported as “did not affect the viability”.

Turning to `NCCCC[C@@H](CC(N)=O)NC(=O)C[C@H](Cc1ccccc1)NC(=O)[C@H]1CCCC[C@@H]1NC(=O)C[C@H](CCCCN)NC(=O)C[C@H](Cc1ccccc1)NC(=O)[C@H]1CCCC[C@@H]1NC(=O)C[C@H](CCCCN)NC(=O)C[C@H](Cc1ccccc1)NC(=O)[C@H]1CCCC[C@@H]1NC(=O)C[C@@H](N)Cc1ccc(O)cc1` [#16, NH2-β^3hTyr-(ACHC-β^3hPhe-β^3hLys)3], in series [2], the “cytotoxicity towards HepG2, dose-effect curve in words” value is “greatest toxic effect at these lower concentrations” and the “IC50 HepG2” value stood at 42.5 ± 6.21 µg/mL (≈ 28.7 µM).

Turning to `CC(C)[C@@H](CC(=O)N[C@@H](CCCCN)CC(N)=O)NC(=O)[C@H]1CCCC[C@@H]1NC(=O)C[C@H](CCCCN)NC(=O)C[C@@H](NC(=O)[C@H]1CCCC[C@@H]1NC(=O)C[C@H](CCCCN)NC(=O)C[C@@H](NC(=O)[C@H]1CCCC[C@@H]1N)C(C)C)C(C)C` [#4, NH2-(ACHC-β^3hVal-β^3hLys)3], in series [1], the “Retention time tR” value stood at 24.5 ± 0.2 min. Moreover, the “IC50 HepG2” value in series [2] amounted to 38.75 ± 0.89 µg/mL (≈ 33.4 µM). Further, in series [3], the “IC50 Caco-2” value was 27.33 ± 1.5 µg/mL (≈ 23.6 µM). Moreover, in series [4] (listed as (ACHC-β3hV-β3hK)), the “surviving fraction (long-term) versus short-term viability; colony forming ability” value is “no significant difference; also recorded: slight decrease in colony forming ability”. Besides, the “plating efficiency of treated cells” value in series [4] (setting [6]) is given as above 22%; in series [5] (setting [6]), above 9.5%. Also, the “surviving fraction (long-term) versus short-term viability” value in series [5] is listed as “no significant difference”.

The term IC50 denotes the point on the concentration scale where inhibition reaches its midpoint. A higher IC50 goes with a need for much substance. Usually inhibition stands for the change of the read-out against control, counted positive when it falls. Lower therefore signals a response near the control.
